Source: ChEMBL document CHEMBL1201862, “PubChem BioAssay data set” (2004)
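These data come from cells grown in 96-well plates and exposed to compound for 48 hours at five concentrations. At the GI50, growth is halved.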 The source made the active and inactive calls. No stated cut-off is given here; in the data, active = GI50 up to about 1.1 µM and inactive = higher.

What was measured:
Assay in all cases: DTP human tumour cell line panel, 48 h
A549 = tested on: A549
DLD-1 = tested on: DLD-1
EKVX = tested on: EKVX
HL-60 = tested on: HL-60
HOP-92 = tested on: HOP-92
IGROV-1 = tested on: IGROV-1
K562 = tested on: K562
NCI-H23 = tested on: NCI-H23
OVCAR-3 = tested on: OVCAR-3
OVCAR-8 = tested on: OVCAR-8
RXF 393 = tested on: RXF 393
SF-268 = tested on: SF-268
SK-MEL-2 = tested on: SK-MEL-2
SK-OV-3 = tested on: SK-OV-3
SN12C = tested on: SN12C
SNB-19 = tested on: SNB-19
UO-31 = tested on: UO-31
XF498 = tested on: XF498
NCI/ADR-RES = tested on: NCI/ADR-RES
PC-3 = tested on: PC-3

Structure (SMILES)	GI50 (A549)	GI50 (DLD-1)	GI50 (EKVX)	GI50 (HL-60)	GI50 (HOP-92)	GI50 (IGROV-1)	GI50 (K562)	GI50 (NCI-H23)	GI50 (OVCAR-3)	GI50 (OVCAR-8)	GI50 (RXF 393)	GI50 (SF-268)	GI50 (SK-MEL-2)	GI50 (SK-OV-3)	GI50 (SN12C)	GI50 (SNB-19)	GI50 (UO-31)	GI50 (XF498)	GI50 (NCI/ADR-RES)	GI50 (PC-3)
Cc1cc(C(=C2C=CC(=[N+](C)C)C=C2)c2ccc([N+](C)(C)C)cc2)ccc1N(C)C	4.33 µM (inactive)	6.65 µM (inactive)	4.32 µM (inactive)	2.3 µM (inactive)	10.9 µM (inactive)	12.3 µM (inactive)	2.07 µM (inactive)	10.1 µM (inactive)	12 µM (inactive)	5.08 µM (inactive)	5.65 µM (inactive)	11.6 µM (inactive)	15.2 µM (inactive)	15.8 µM (inactive)	5.07 µM (inactive)	24 µM (inactive)	26.3 µM (inactive)	1.36 µM (inactive)	–	–
COc1ccc(S(=O)(=O)N/N=C\c2cc([N+](=O)[O-])cc(I)c2O)c(OC)c1OC	59 µM (inactive)	28.8 µM (inactive)	29.9 µM (inactive)	26.6 µM (inactive)	13.5 µM (inactive)	32 µM (inactive)	31.6 µM (inactive)	30.5 µM (inactive)	20.7 µM (inactive)	34.4 µM (inactive)	20.8 µM (inactive)	26.5 µM (inactive)	21.4 µM (inactive)	25 µM (inactive)	31.5 µM (inactive)	21.1 µM (inactive)	18.5 µM (inactive)	20.7 µM (inactive)	–	–
CCOC(=O)C1=C(C)N(c2ccccc2)C2=C(C(=O)N(c3ccccc3)C2c2ccccc2)C1c1ccccc1 (stereo unspecified)	> 100 µM (inactive)	> 100 µM (inactive)	> 100 µM (inactive)	> 100 µM (inactive)	> 100 µM (inactive)	> 100 µM (inactive)	> 100 µM (inactive)	> 100 µM (inactive)	> 100 µM (inactive)	> 100 µM (inactive)	> 100 µM (inactive)	> 100 µM (inactive)	> 100 µM (inactive)	> 100 µM (inactive)	> 100 µM (inactive)	> 100 µM (inactive)	> 100 µM (inactive)	> 100 µM (inactive)	–	–
COc1ccccc1/C=C1\CCC(Cc2ccccc2)(CN(C)C)C1=O (stereo unspecified)	3.44 µM (inactive)	0.414 µM (active)	3.35 µM (inactive)	0.471 µM (active)	27.5 µM (inactive)	3.67 µM (inactive)	0.0851 µM (active)	6.43 µM (inactive)	0.942 µM (active)	2.33 µM (inactive)	7.93 µM (inactive)	4.85 µM (inactive)	6.53 µM (inactive)	8.36 µM (inactive)	3.75 µM (inactive)	1.57 µM (inactive)	7.59 µM (inactive)	4.3 µM (inactive)	0.989 µM (active)	1.03 µM (active)
NCCOc1ccc(/C(=C(/Cl)c2ccccc2)c2ccccc2)cc1	16 µM (inactive)	15.6 µM (inactive)	15.1 µM (inactive)	3.74 µM (inactive)	5.18 µM (inactive)	14.4 µM (inactive)	3.32 µM (inactive)	16 µM (inactive)	12.4 µM (inactive)	14 µM (inactive)	4.03 µM (inactive)	13.2 µM (inactive)	14.4 µM (inactive)	16.9 µM (inactive)	9.66 µM (inactive)	14.4 µM (inactive)	9.16 µM (inactive)	5.6 µM (inactive)	–	–
CC(=O)C1CC=C(C)CC1 (stereo unspecified)	> 100 µM (inactive)	> 100 µM (inactive)	> 100 µM (inactive)	> 100 µM (inactive)	> 100 µM (inactive)	> 100 µM (inactive)	> 100 µM (inactive)	> 100 µM (inactive)	> 100 µM (inactive)	> 100 µM (inactive)	> 100 µM (inactive)	> 100 µM (inactive)	> 100 µM (inactive)	> 100 µM (inactive)	> 100 µM (inactive)	> 100 µM (inactive)	> 100 µM (inactive)	> 100 µM (inactive)	–	–
O=C1Cc2ccccc2CCc2ccsc21	> 100 µM (inactive)	> 100 µM (inactive)	> 100 µM (inactive)	92.3 µM (inactive)	40 µM (inactive)	> 100 µM (inactive)	> 100 µM (inactive)	> 100 µM (inactive)	> 100 µM (inactive)	> 100 µM (inactive)	> 100 µM (inactive)	> 100 µM (inactive)	> 100 µM (inactive)	> 100 µM (inactive)	> 100 µM (inactive)	> 100 µM (inactive)	> 100 µM (inactive)	> 100 µM (inactive)	–	–
COC1CC(C)C(OC)C2=CC(=O)C=C(NC(=O)/C(C)=C/C=C\C(C)C(OC(N)=O)/C(C)=C\C(C)C1OC)C2=O (stereo unspecified)	2.9 µM (inactive)	0.804 µM (active)	11 µM (inactive)	0.182 µM (active)	0.313 µM (active)	2.97 µM (inactive)	0.114 µM (active)	0.447 µM (active)	0.313 µM (active)	1.67 µM (inactive)	0.337 µM (active)	1.31 µM (inactive)	0.525 µM (active)	0.357 µM (active)	0.296 µM (active)	0.495 µM (active)	4.83 µM (inactive)	0.681 µM (active)	–	11.5 µM (inactive)
Cn1cccc(C(=O)c2ccccc2)c1=O	> 100 µM (inactive)	> 100 µM (inactive)	> 100 µM (inactive)	> 100 µM (inactive)	> 100 µM (inactive)	> 100 µM (inactive)	> 100 µM (inactive)	> 100 µM (inactive)	> 100 µM (inactive)	> 100 µM (inactive)	> 100 µM (inactive)	> 100 µM (inactive)	> 100 µM (inactive)	> 100 µM (inactive)	> 100 µM (inactive)	> 100 µM (inactive)	> 100 µM (inactive)	> 100 µM (inactive)	–	–
CC(C)NC(=O)OCc1c(COC(=O)NC(C)C)c(-c2ccc(Cl)c(Cl)c2)n2c1CCC2	21.1 µM (inactive)	> 51.5 µM (inactive)	57.1 µM (inactive)	26.6 µM (inactive)	29.4 µM (inactive)	50 µM (inactive)	46.1 µM (inactive)	46.9 µM (inactive)	54 µM (inactive)	46.6 µM (inactive)	31.3 µM (inactive)	43.5 µM (inactive)	44.2 µM (inactive)	61.4 µM (inactive)	49.4 µM (inactive)	56.5 µM (inactive)	45 µM (inactive)	45.7 µM (inactive)	> 89.7 µM (inactive)	> 80.7 µM (inactive)
CCC/C=C\C=C\C1(NS(=O)(=O)c2ccc(C)cc2)CCC(C(C)(C)C)CC1 (stereo unspecified)	15.4 µM (inactive)	19.4 µM (inactive)	14.2 µM (inactive)	6.93 µM (inactive)	22.9 µM (inactive)	27 µM (inactive)	12.5 µM (inactive)	14.1 µM (inactive)	7.01 µM (inactive)	> 10 µM (inactive)	13.7 µM (inactive)	17.4 µM (inactive)	13.5 µM (inactive)	26.7 µM (inactive)	11.2 µM (inactive)	35.5 µM (inactive)	23.7 µM (inactive)	16.7 µM (inactive)	–	–
COC(=O)C(C)(C)/N=C/N(C)C	> 100 µM (inactive)	> 100 µM (inactive)	> 100 µM (inactive)	55.6 µM (inactive)	> 100 µM (inactive)	> 100 µM (inactive)	> 100 µM (inactive)	> 100 µM (inactive)	> 100 µM (inactive)	> 100 µM (inactive)	86.5 µM (inactive)	> 100 µM (inactive)	> 100 µM (inactive)	> 100 µM (inactive)	> 100 µM (inactive)	> 100 µM (inactive)	> 100 µM (inactive)	> 100 µM (inactive)	–	–
COC1C(CO)OC(n2c3c(Cl)cccc3c3c4c(c5c6cccc(Cl)c6[nH]c5c32)C(=O)NC4=O)C(O)C1O (stereo unspecified)	0.298 µM (active)	0.568 µM (active)	0.463 µM (active)	0.22 µM (active)	0.215 µM (active)	0.299 µM (active)	0.142 µM (active)	0.153 µM (active)	0.292 µM (active)	0.177 µM (active)	0.225 µM (active)	0.149 µM (active)	0.386 µM (active)	0.303 µM (active)	0.104 µM (active)	0.213 µM (active)	0.296 µM (active)	0.27 µM (active)	0.444 µM (active)	0.227 µM (active)
COc1cccc(/C=C2\CCC(CN(C)C)C2=O)c1 (stereo unspecified)	19 µM (inactive)	2.8 µM (inactive)	19.3 µM (inactive)	0.638 µM (active)	13.7 µM (inactive)	8.47 µM (inactive)	1.1 µM (active)	8.09 µM (inactive)	5.04 µM (inactive)	3.08 µM (inactive)	6.07 µM (inactive)	6.07 µM (inactive)	11.8 µM (inactive)	15.7 µM (inactive)	5.71 µM (inactive)	13.5 µM (inactive)	9.51 µM (inactive)	18.9 µM (inactive)	2.42 µM (inactive)	12.4 µM (inactive)
